Data taken from patent US10174016B2 (BAYER AKTIENGESELLSCHAFT, priority 2014, dated 2019).
Like-named read-outs stand apart in the source and are kept apart here.

Key:
human P2X3 receptor = human P2X3 receptor (Homo sapiens (Human), UniProt P56373); experiment: Intracellular calcium measurement (FLIPR, Fluo-4) of antagonist activity at human P2X3 receptors; type: cell-based; conditions: read-out: hP2X3 IC50
In short: (§1)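 Antagonism quantified from peak calcium fluorescence (Fluo-4, FLIPR, 90 sec read) evoked by EC80 α,β-Me-ATP, after a 30 min, 37° C. compound pretreatment in 1% DMSO. Human P2X3- or P2X2/3-expressing cells used; triplicate means fitted for IC50, percent maximal inhibition and Hill coefficient.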

human P2X2/3 receptor = human P2X2/3 receptor (Homo sapiens (Human), UniProt P56373+Q9UBL9); experiment: Intracellular calcium measurement (FLIPR, Fluo-4) of antagonist activity at human P2X2/3 receptors; type: cell-based; conditions: human P2X2/3, FLIPR calcium assay, agonist α,β-Me-ATP; read-out: hP2X2/3 IC50
In short: as §1

[1] = human P2X3, FLIPR calcium assay, agonist α,β-Me-ATP

Sequence of human P2X2/3 receptor (P56373 whole entry): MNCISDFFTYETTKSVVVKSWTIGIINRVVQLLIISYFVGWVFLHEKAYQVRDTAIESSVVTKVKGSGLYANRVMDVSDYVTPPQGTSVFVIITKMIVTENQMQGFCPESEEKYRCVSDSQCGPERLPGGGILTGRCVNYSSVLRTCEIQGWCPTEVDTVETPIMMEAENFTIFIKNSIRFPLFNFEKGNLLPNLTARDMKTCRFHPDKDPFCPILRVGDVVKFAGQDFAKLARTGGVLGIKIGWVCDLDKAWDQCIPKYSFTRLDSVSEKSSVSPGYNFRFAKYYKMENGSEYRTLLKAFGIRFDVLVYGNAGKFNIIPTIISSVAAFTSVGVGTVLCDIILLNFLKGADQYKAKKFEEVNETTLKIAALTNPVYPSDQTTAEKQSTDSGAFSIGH
Sequence of human P2X2/3 receptor (Q9UBL9 whole entry): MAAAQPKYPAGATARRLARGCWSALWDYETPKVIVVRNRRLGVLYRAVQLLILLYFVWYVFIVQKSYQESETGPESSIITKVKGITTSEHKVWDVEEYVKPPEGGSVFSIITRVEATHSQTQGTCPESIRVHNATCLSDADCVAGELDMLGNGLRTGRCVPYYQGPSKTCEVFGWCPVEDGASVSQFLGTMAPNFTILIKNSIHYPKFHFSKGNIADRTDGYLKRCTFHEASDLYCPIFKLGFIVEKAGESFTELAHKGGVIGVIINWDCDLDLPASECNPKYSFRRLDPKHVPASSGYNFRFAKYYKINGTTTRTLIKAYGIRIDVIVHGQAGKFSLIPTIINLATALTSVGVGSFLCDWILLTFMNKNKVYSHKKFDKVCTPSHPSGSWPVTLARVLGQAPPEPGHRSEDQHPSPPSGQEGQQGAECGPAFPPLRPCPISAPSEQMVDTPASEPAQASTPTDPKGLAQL
Sequence of human P2X3 receptor (P56373 whole entry): as the sequence (P56373 whole entry) above

Structure (SMILES) | IC50 (human P2X3 receptor; [1]) [nM] | IC50 (human P2X2/3 receptor) [nM] | IC50 (human P2X3 receptor) [nM]
CCc1cnc(-c2cc(OC[C@H]3CCOC3)cc(C(=O)N[C@H](C)c3cnc(C(F)(F)F)nc3)c2)s1 [Example 278, 3-(5-ethyl-1,3-thiazol-2-yl)-5-[(3S)-tetrahydrofuran-3-ylmethoxy]-N-{(1R)-1-[2-(trifluoromethyl)pyrimidin-5-yl]ethyl}benzamide] | 2 | 23 | –
Cc1ccc([C@@H](C)NC(=O)c2cc(OC[C@H]3CCOC3)cc(-c3ncc(C(C)C)s3)c2)nn1 [Example 279, N-[(1R)-1-(6-methylpyridazin-3-yl)ethyl]-3-[5-(propan-2-yl)-1,3-thiazol-2-yl]-5-[(3S)-tetrahydrofuran-3-ylmethoxy]benzamide] | 115 | 956 | –
CC(C)c1cnc(-c2cc(OC[C@H]3CCOC3)cc(C(=O)N[C@H](C)c3cnc(C(F)(F)F)nc3)c2)s1 [Example 281, 3-[5-(propan-2-yl)-1,3-thiazol-2-yl]-5-[(3S)-tetrahydrofuran-3-ylmethoxy]-N-{(1R)-1-[2-(trifluoromethyl)pyrimidin-5-yl]ethyl}benzamide] | – | 198 | 26
CCc1cnc(-c2cc(OC[C@@H]3CCCO3)cc(C(=O)N[C@H](C)c3cnc(C)cn3)c2)s1 [Example 283, 3-(5-ethyl-1,3-thiazol-2-yl)-N-[(1R)-1-(5-methylpyrazin-2-yl)ethyl]-5-[(2S)-tetrahydrofuran-2-ylmethoxy]benzamide] | – | 379 | 10
CCc1cnc(-c2cc(OC[C@@H]3CCCO3)cc(C(=O)N[C@H](C)c3cnc(C(F)(F)F)nc3)c2)s1 [Example 284, 3-(5-ethyl-1,3-thiazol-2-yl)-5-[(2S)-tetrahydrofuran-2-ylmethoxy]-N-{(1R)-1-[2-(trifluoromethyl)pyrimidin-5-yl]ethyl}benzamide] | 4 | 57 | –
Cc1ccc([C@@H](C)NC(=O)c2cc(OC[C@@H]3CCCO3)cc(-c3ncc(C4CCC4)s3)c2)nn1 [Example 285, 3-(5-cyclobutyl-1,3-thiazol-2-yl)-N-[(1R)-1-(6-methylpyridazin-3-yl)ethyl]-5-[(2S)-tetrahydrofuran-2-ylmethoxy]benzamide] | 113 | 760 | –
C[C@@H](NC(=O)c1cc(OC[C@@H]2CCCO2)cc(-c2ncc(C3CCC3)s2)c1)c1cnc(C(F)(F)F)nc1 [Example 287, 3-(5-cyclobutyl-1,3-thiazol-2-yl)-5-[(2S)-tetrahydrofuran-2-ylmethoxy]-N-{(1R)-1-[2-(trifluoromethyl)pyrimidin-5-yl]ethyl}benzamide] | 35 | 275 | –
Cc1ccc([C@@H](C)NC(=O)c2cc(OC[C@@H]3CCCO3)cc(-c3ncc(C(C)C)s3)c2)nn1 [Example 288, N-[(1R)-1-(6-methylpyridazin-3-yl)ethyl]-3-[5-(propan-2-yl)-1,3-thiazol-2-yl]-5-[(2S)-tetrahydrofuran-2-ylmethoxy]benzamide] | 150 | 1310 | –
CC(C)c1cnc(-c2cc(OC[C@@H]3CCCO3)cc(C(=O)N[C@H](C)c3cnc(C(F)(F)F)nc3)c2)s1 [Example 290, 3-[5-(propan-2-yl)-1,3-thiazol-2-yl]-5-[(2S)-tetrahydrofuran-2-ylmethoxy]-N-{(1R)-1-[2-(trifluoromethyl)pyrimidin-5-yl]ethyl}benzamide] | – | 368 | 31
CC(C)c1cnc(-c2cc(OC[C@@H]3CCOC3)cc(C(=O)N[C@H](C)c3ccc(C(F)(F)F)nn3)c2)s1 [Example 293, 3-[5-(propan-2-yl)-1,3-thiazol-2-yl]-5-[(3R)-tetrahydrofuran-3-ylmethoxy]-N-{(1R)-1-[6-(trifluoromethyl)pyridazin-3-yl]ethyl}benzamide] | 63 | 1160 | –
CC(C)c1cnc(-c2cc(O[C@@H]3CCOC3)cc(C(=O)N[C@H](C)c3ccc(C(F)(F)F)nn3)c2)s1 [Example 294, 3-[5-(propan-2-yl)-1,3-thiazol-2-yl]-5-[(3R)-tetrahydrofuran-3-yloxy]-N-{(1R)-1-[6-(trifluoromethyl)pyridazin-3-yl]ethyl}benzamide] | 101 | 1060 | –
C[C@@H](NC(=O)c1cc(OC[C@@H]2CCOC2)cc(-c2ncc(C3CCC3)s2)c1)c1ccc(C(F)(F)F)nn1 [Example 297, 3-(5-cyclobutyl-1,3-thiazol-2-yl)-5-[(3R)-tetrahydrofuran-3-ylmethoxy]-N-{(1R)-1-[6-(trifluoromethyl)pyridazin-3-yl]ethyl}benzamide] | 56 | 933 | –
CC(C)c1cnc(-c2cc(OC[C@H]3CCOC3)cc(C(=O)N[C@H](C)c3ccc(C(F)(F)F)nn3)c2)s1 [Example 298, 3-[5-(propan-2-yl)-1,3-thiazol-2-yl]-5-[(3S)-tetrahydrofuran-3-ylmethoxy]-N-{(1R)-1-[6-(trifluoromethyl)pyridazin-3-yl]ethyl}benzamide] | 62 | 781 | –
CC(C)c1cnc(-c2cc(OC[C@H]3CCCO3)cc(C(=O)N[C@H](C)c3ccc(C(F)(F)F)nn3)c2)s1 [Example 299, 3-[5-(propan-2-yl)-1,3-thiazol-2-yl]-5-[(2R)-tetrahydrofuran-2-ylmethoxy]-N-{(1R)-1-[6-(trifluoromethyl)pyridazin-3-yl]ethyl}benzamide] | 37 | 575 | –
C[C@@H](NC(=O)c1cc(OC[C@@H]2CCCO2)cc(-c2ncc(C3CCC3)s2)c1)c1ccc(C(F)(F)F)nn1 [Example 300, 3-(5-cyclobutyl-1,3-thiazol-2-yl)-5-[(2S)-tetrahydrofuran-2-ylmethoxy]-N-{(1R)-1-[6-(trifluoromethyl)pyridazin-3-yl]ethyl}benzamide] | 78 | 820 | –
CC(C)c1cnc(-c2cc(OC[C@@H]3CCCO3)cc(C(=O)N[C@H](C)c3ccc(C(F)(F)F)nn3)c2)s1 [Example 301, 3-[5-(propan-2-yl)-1,3-thiazol-2-yl]-5-[(2S)-tetrahydrofuran-2-ylmethoxy]-N-{(1R)-1-[6-(trifluoromethyl)pyridazin-3-yl]ethyl}benzamide] | 91 | 1710 | –
CCc1cnc(-c2cc(OC[C@@H]3CCCO3)cc(C(=O)N[C@H](C)c3ccc(C(F)(F)F)nn3)c2)s1 [Example 302, 3-(5-ethyl-1,3-thiazol-2-yl)-5-[(2S)-tetrahydrofuran-2-ylmethoxy]-N-{(1R)-1-[6-(trifluoromethyl)pyridazin-3-yl]ethyl}benzamide] | 6 | 145 | –
Cc1cnc(-c2cc(OC3CCN(CC(F)F)CC3)cc(C(=O)N[C@H](C)c3cnc(C(F)(F)F)nc3)c2)s1 [Example 304] | – | 27 | 7
Cc1ccc([C@@H](C)NC(=O)c2cc(OC3CCN(CC(F)F)CC3)cc(-c3ncc(C)s3)c2)nn1 [Example 305, 3-{[1-(2,2-difluoroethyl)piperidin-4-yl]oxy}-N-[(1R)-1-(6-methylpyridazin-3-yl)ethyl]-5-(5-methyl-1,3-thiazol-2-yl)benzamide] | 9 | 44 | –
Cc1cnc([C@@H](C)NC(=O)c2cc(OC3CCN(CC(F)F)CC3)cc(-c3ncc(C)s3)c2)cn1 [Example 306, 3-{[1-(2,2-difluoroethyl)piperidin-4-yl]oxy}-N-[(1R)-1-(5-methylpyrazin-2-yl)ethyl]-5-(5-methyl-1,3-thiazol-2-yl)benzamide] | 42 | 464 | –
Cc1ccc(CNC(=O)c2cc(OC3CCN(CC(F)F)CC3)cc(-c3ncc(C)s3)c2)nn1 [Example 307, 3-{[1-(2,2-difluoroethyl)piperidin-4-yl]oxy}-N-[(6-methylpyridazin-3-yl)methyl]-5-(5-methyl-1,3-thiazol-2-yl)benzamide] | – | 103 | 16
Cc1cnc(-c2cc(OC3CCN(CC(F)F)CC3)cc(C(=O)N[C@@H](C)c3cnc(C(F)(F)F)nc3)c2)s1 [Example 308, 3-{[1-(2,2-difluoroethyl)piperidin-4-yl]oxy}-5-(5-methyl-1,3-thiazol-2-yl)-N-{(1S)-1-[2-(trifluoromethyl)pyrimidin-5-yl]ethyl}benzamide] | 153 | 2590 | –
Cc1ncc([C@@H](C)NC(=O)c2cc(OC3CCN(CC(F)F)CC3)cc(-c3ncc(C)s3)c2)cn1 [Example 309, 3-{[1-(2,2-difluoroethyl)piperidin-4-yl]oxy}-N-[(1R)-1-(2-methylpyrimidin-5-yl)ethyl]-5-(5-methyl-1,3-thiazol-2-yl)benzamide] | 8 | 70 | –
Cc1ccc([C@@H](C)NC(=O)c2cc(OC3CCN(CC(F)(F)F)CC3)cc(-c3ncc(C)s3)c2)nn1 [Example 311, N-[(1R)-1-(6-methylpyridazin-3-yl)ethyl]-3-(5-methyl-1,3-thiazol-2-yl)-5-{[1-(2,2,2-trifluoroethyl)piperidin-4-yl]oxy}benzamide] | 8 | 35 | –
Cc1cnc(-c2cc(OC3CCN(CC(F)(F)F)CC3)cc(C(=O)N[C@H](C)c3ccc(C(F)(F)F)nn3)c2)s1 [Example 312, 3-(5-methyl-1,3-thiazol-2-yl)-5-{[1-(2,2,2-trifluoroethyl)piperidin-4-yl]oxy}-N-{(1R)-1-[6-(trifluoromethyl)pyridazin-3-yl]ethyl}benzamide] | 9 | 83 | –
Cc1cnc([C@@H](C)NC(=O)c2cc(OC3CCN(CC(F)(F)F)CC3)cc(-c3ncc(C)s3)c2)cn1 [Example 313, N-[(1R)-1-(5-methylpyrazin-2-yl)ethyl]-3-(5-methyl-1,3-thiazol-2-yl)-5-{[1-(2,2,2-trifluoroethyl)piperidin-4-yl]oxy}benzamide] | 11 | 200 | –
Cc1ccc(CNC(=O)c2cc(OC3CCN(CC(F)(F)F)CC3)cc(-c3ncc(C)s3)c2)nn1 [Example 314, N-[(6-methylpyridazin-3-yl)methyl]-3-(5-methyl-1,3-thiazol-2-yl)-5-{[1-(2,2,2-trifluoroethyl)piperidin-4-yl]oxy}benzamide] | – | 192 | 8
